These are literature values, as cited in patent US10959985B1, “Pharmaceutical compositions including carvedilol and methods of using the same” (ECI Pharmaceuticals, LLC, priority 2019, dated 2021).

Read-outs that look alike come from different tables or passages of the source.

For `COc1ccccc1OCCNCC(O)COc1cccc2[nH]c3ccccc3c12` (racemic) [Carvedilol, (±) 1-(9H-carbazol-4-yloxy)-3-[[2(2-methoxyphenoxy)ethyl]amino]-2-propanol], the solubility in water entry is “practically insoluble”. Moreover, the “oral TDLO” value with humans (men) is 5.357 mg/kg. Besides, the “oral TDLO” value with humans (women) was 12 mg/kg. For the same compound, the “intraperitoneal LD50” value in the series with rats (intraperitoneal) is on record as 769 mg/kg. Further, the “oral LDLO” value in the series on rats (oral) is 8 gm/kg. In the series on mice (intraperitoneal), the “intraperitoneal LD50” value is reported as 364 mg/kg. Also, the “oral LDLO” value in the series on mice (oral) was 8 gm/kg.
